The test system of data set [1] is total white blood cell (WBC) and lymphocyte (LY) counts. In words: Myelosuppression: blood cell counts after doxorubicin (Example 3). As to the method:
(§1) To determine whether tolvaptan affects the plasma concentration of doxorubicin, plasma samples were obtained after the first (day 1) and sixth (day 13) injection of doxorubicin with vehicle or tolvaptan, and the plasma concentration of doxorubicin was measured.
Anthracyclines including doxorubicin are known to cause myelosuppression due to their ability to intercalate into DNA, and to inhibit new protein synthesis and cell proliferation in the bone marrow (similar mechanisms are involved in the inhibition of cancer cell proliferation). Myelosuppression was used as an index of the ability of doxorubicin to inhibit cell proliferation and anti-cancer effect. […] Blood samples were taken after 1 or 13 days of treatment with doxorubicin.

Data set [2] concerns left ventricle. Kind of data set: Echocardiography of cardiac function, rat model with intravenous injection of doxorubicin (Example 4). The class given is in vivo. As to the method: In a clinical setting, doxorubicin is administered intravenously to cancer patients. Furthermore, the major side effect associated with doxorubicin treatment is cardiac dysfunction and development of CHF. Therefore, the effect of tolvaptan on CHF was evaluated in a rat model with intravenous injection of doxorubicin. Cardiac function was determined using high resolution ultrasonograpy. Rats were divided into 3 groups as described in Table 2, and observed for 10 weeks. [table] Control rats were not treated. […] Rats were given either vehicle or tolvaptan (10 mg/kg) daily starting on the first day of doxorubicin injection. On the days with co-administration of doxorubicin and tolvaptan, tolvaptan was given by oral gavage 45 min prior to the intravenous injection of doxorubicin. Cardiac function was evaluated using echocardiography (Vevo 770, Visualsonics Inc, Toronto, Canada). Echo images were taken once a week for 10 consecutive weeks. Rats were anesthetized with Isoflurane and parasternal long and short axis echo images were recorded. Offline analysis of cardiac function (ejection fraction and fraction shortening) and anatomic data of the heart (LV end diastolic diameter and volume) were performed. At the end of the 10-week period, cardiac contractility (LVdp/dtmax/ip) was measured invasively.

Data set [3] has as its system doxorubicin-induced cardiac toxicity and animal death. Kind of data set: Survival of rats given repeated intraperitoneal injections of doxorubicin (Example 1). The note with it: tolvaptan 10 mg/kg orally daily. The class given is in vivo, rat. How it is done:
Repeated injection of doxorubicin in animals is known to cause cardiac injury and to increase mortality. A study was designed to investigate the effect of tolvaptan on doxorubicin-induced cardiac toxicity and animal death. Four groups of rats were evaluated; all with 6 injections of doxorubicin (2.5 mg/kg each) during a two week period. To test the ability of tolvaptan to prevent toxicity, tolvaptan (10 mg/kg orally) daily was given to one group of rats (Tol+Dox). Another group of rats was given vehicle only (Veh+Dox). To test the ability of tolvaptan to reverse the toxicity, tolvaptan (10 mg/kg orally) daily was given to one group of rats, starting after the completion of doxorubicin administration (Dox+Tol). Another group of rats was given vehicle only (Dox+Veh). Table 1 summarizes the group designations:
Survival was analyzed using Kaplan-Meier survival analysis with the Log-Rank test.

The nature of data set [4]: Plasma concentration of doxorubicin with vehicle or tolvaptan (Example 3). Format: in vivo, rat. The note with it: after first (day 1) and sixth (day 13) doxorubicin injection; tolvaptan vs vehicle; FIG. 6. As to the method: as §1
The subject of data set [5] is left ventricle. Kind of data set: Invasive hemodynamic measurement of cardiac contractility at end of 10 weeks (Example 4). The class given is in vivo, rat. Particulars: tolvaptan-treated vs vehicle-treated doxorubicin rats, FIG. 12.
Method: Control rats were not treated. For groups 2 and 3 with doxorubicin treatment, rats were given three injections intravenously of doxorubicin (3 mg/kg each) every other day (total dose of 9 mg/kg). […] Rats were given either vehicle or tolvaptan (10 mg/kg) daily starting on the first day of doxorubicin injection. On the days with co-administration of doxorubicin and tolvaptan, tolvaptan was given by oral gavage 45 min prior to the intravenous injection of doxorubicin.
Invasive hemodynamic measurements were performed at the end of the 10 week period.
For data set [6], the system named is doxorubicin toxicity under elevated vasopressin condition. How it is done: This condition may be relevant to certain cancer patients who have elevated vasopressin release and are undergoing chemotherapy, such as with doxorubicin.
Two groups of rats were studied and the protocol is described in FIG. 13. Rats were intravenously injected with doxorubicin (3 mg/kg) 3 times once every other day for a total of 9 mg/kg (same as described in Example 4). One group (Dox+DDAVP) was given vehicle and the other group (Dox+DDAVP+Tol) was administered tolvaptan (10 mg/kg) once daily. An osmotic minipump (infusion rate: 0.15 μl/h, ALZET model 2006, ALZA Corporation) was implanted in each rat for continuous subcutaneous infusion of 1 ng/h of DDAVP (a vasopressin V2 agonist [deamino-Cys1, D-Arg8]-vasopressin).

In data set [7] the test system is doxorubicin-induced mortality. In words: DDAVP infusion and doxorubicin-induced mortality (Example 2). Format: in vivo, rat. The note with it: DDAVP 1 ng/h s.c. infusion 14 days + doxorubicin 6 x 2.5 mg/kg i.p.; vs doxorubicin alone; p<0.001 Log-Rank; FIG. 4. How it is done:
The present inventors investigated whether activation of V2 receptors can accelerate doxorubicin-induced mortality. A continuous subcutaneous infusion of 1 ng/h of DDAVP (deamino-Cyst, D-Arg-vasopressin) per animal was accomplished using an osmotic minipump (infusion rate: 0.5 μL/h, ALZET model 2002, DURECT Corporation, Cupertino, Calif.) for 14 days. On day 0 an osmotic minipump was implanted subcutaneously. The sham control rats had the same surgical procedure but with only saline in the minipump. The rats were then divided into two groups: one with six intraperitoneal injections of doxorubicin (2.5 mg/kg) during a 13 day period, and one with injections of saline. The rats were fed with liquid food throughout the experiment. With the continuous infusion of DDAVP, liquid food feeding increases systemic volume overload and edema, conditions often observed in CHF patients.

Another data set concerns doxorubicin-treated rats. Particulars: antagonist given several weeks after doxorubicin, previous study (ref. 25); cited from earlier work.
Where [8] appears, read: thirteen-day treatment with doxorubicin, FIG. 7.

Molecules are shown by their SMILES.

`COc1cccc2c1C(=O)c1c(O)c3c(c(O)c1C2=O)C[C@@](O)(C(=O)CO)C[C@@H]3O[C@H]1C[C@H](N)[C@H](O)[C@H](C)O1` [doxorubicin]: in data set [1] (one day treatment with doxorubicin), the blood cell counts result is recorded as “did not affect”. For the same compound, in data set [1] (setting [8]), the “lymphocyte (LY) count” value is on record as “significantly reduced” and the “total white blood cell (WBC) count” value was “significantly reduced”. In the data set with left ventricle [2] (doxorubicin 3 x 3 mg/kg i.v. every other day, weekly echo for 10 weeks, FIG. 8), the “fractional shortening of the left ventricle” value was “progressively decreased”. The “ejection fraction of the left ventricle” value in the data set with left ventricle [2] (doxorubicin 3 x 3 mg/kg i.v. every other day, weekly echo for 10 weeks, FIG. 9) is recorded as “progressively decreased”. Further, the “left ventricle diastolic volume” value in the data set on left ventricle [2] (doxorubicin 3 x 3 mg/kg i.v., weight adjusted, FIG. 10) is listed as “progressively increased”. For the same compound, in the data set with left ventricle [2] (doxorubicin 3 x 3 mg/kg i.v., weight adjusted, FIG. 11), the “left ventricle diastolic diameter” value is reported as “progressively increased”.

Consider `Cc1ccccc1C(=O)Nc1ccc(C(=O)N2CCCC(O)c3cc(Cl)ccc32)c(C)c1` (centres unmarked) [tolvaptan, 7-chloro-5-hydroxy-1-[2-methyl-4-(2-methylbenzoyl-amino)benzoyl]-2,3,4,5-tetrahydro-1H-benzazepine], for which the “delay of rat death” value in data set [3] (initiated after completion of 6 doxorubicin injections, 5 rats per group, FIG. 2) is on record as “only a small delay”. Also, the “protective effect on mortality” value in data set [3] (initiated after completion of 6 doxorubicin injections, FIG. 2) is reported as “largely lost”. Also, the “mortality rate (Kaplan-Meier survival analysis, Log-Rank test)” value in data set [3] (starting with first doxorubicin injection (6 x 2.5 mg/kg i.p.), 12 weeks, vs vehicle, p<0.001, FIG. 1) is recorded as “significantly reduced”. For the same compound, the “effect on plasma concentration of doxorubicin” value in data set [4] is on record as “did not affect”. Moreover, the “effect on the myelosuppressive effect of doxorubicin” value in data set [1] (rat, in vivo) is on record as “did not affect”. Also, the “cardiac function (fractional shortening, ejection fraction)” value in the data set with left ventricle [2] (tolvaptan 10 mg/kg orally daily from first day of doxorubicin, vs vehicle, FIGS. 8 and 9) is “significantly improved”. The “remodeling process of the left ventricle” value in the data set on left ventricle [2] (tolvaptan 10 mg/kg orally daily with doxorubicin, FIGS. 10 and 11) is reported as “slowed”. Besides, the “contractility index (LVdp/dtmax normalized to instantaneous LV pressure)” value in the data set with left ventricle [5] is recorded as “higher”. Moreover, the “survival (Kaplan-Meier)” value in data set [6] (tolvaptan 10 mg/kg once daily, Dox+DDAVP+Tol vs Dox+DDAVP, FIG. 14) was “significantly improved”.

Turning to `NC(=O)CC[C@@H]1NC(=O)[C@H](Cc2ccccc2)NC(=O)[C@H](Cc2ccc(O)cc2)NC(=O)CCSSC[C@@H](C(=O)N2CCC[C@H]2C(=O)N[C@H](CCCN=C(N)N)C(=O)NCC(N)=O)NC(=O)[C@H](CC(N)=O)NC1=O` [DDAVP, [deamino-Cys1, D-Arg8]-vasopressin], the “death rate from doxorubicin” value in data set [7] is “significantly accelerated”. Moreover, the “toxicity of doxorubicin under DDAVP infusion” value in data set [6] (DDAVP 1 ng/h s.c. infusion + doxorubicin 3 x 3 mg/kg i.v., FIG. 14) is reported as “very toxic”. The “time in which rats died” value in data set [6] (DDAVP 1 ng/h s.c. infusion + doxorubicin 3 x 3 mg/kg i.v., vehicle) amounted to 2 weeks.

For the compound `Cc1ccccc1C(=O)Nc1ccc(C(=O)N2CCCC(N(C)C)c3ccccc32)cc1` (centres unmarked) [OPC-31260], the mortality rate entry in the data set on doxorubicin-treated rats is recorded as “slight but not significant reduction”.

The record behind these values is patent US8372830B2, “Methods for using vasopressin antagonists with anthracycline chemotherapy agents to reduce cardiotoxicity and/or improve survival” (Otsuka Pharmaceutical Co., Ltd., priority 2007, dated 2013).
